Experimental data taken from ChEMBL document CHEMBL1201862, “PubChem BioAssay data set” (2004).
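Interpolation was linear, between the two tested concentrations surrounding the appropriate level; five concentrations were tested over 48 hours in 96-well plates. GI50 is the concentration that inhibits growth by half.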 Activity calls are given as the source filed them. Cut-off read from the data, not from the text of the source: active = GI50 up to about 1.1 µM and inactive = higher.

How the values were obtained:
Assay in all cases: DTP human tumour cell line panel, 48 h
[1] = system: COLO 205
[2] = system: HT-29
[3] = system: HCT-15
[4] = system: SK-MEL-2
[5] = system: IGROV-1
[6] = system: Hs-578T
[7] = system: SF-539
[8] = system: SK-MEL-28
[9] = system: Malme-3M
[10] = system: MOLT-4
[11] = system: T47D
[12] = system: SK-MEL-5
[13] = system: SNB-75
[14] = system: OVCAR-3
[15] = system: SN12C
[16] = system: TK-10
[17] = system: UO-31
[18] = system: NCI-H460
[19] = system: RXF 393
[20] = system: A498

SMILES | GI50 [1] | GI50 [2] | GI50 [3] | GI50 [4] | GI50 [5] | GI50 [6] | GI50 [7] | GI50 [8] | GI50 [9] | GI50 [10] | GI50 [11] | GI50 [12] | GI50 [13] | GI50 [14] | GI50 [15] | GI50 [16] | GI50 [17] | GI50 [18] | GI50 [19] | GI50 [20]
CC1(C)CC2C(C1=O)C1(C)CCCC2(C)C1=O (stereo not drawn) | > 100 µM (inactive) | > 100 µM (inactive) | > 100 µM | > 100 µM (inactive) | > 100 µM (inactive) | > 100 µM (inactive) | > 100 µM (inactive) | > 100 µM (inactive) | > 100 µM (inactive) | > 100 µM (inactive) | > 100 µM (inactive) | > 100 µM (inactive) | > 100 µM (inactive) | > 100 µM (inactive) | > 100 µM (inactive) | > 100 µM (inactive) | > 100 µM (inactive) | > 100 µM (inactive) | – | –
Cc1ccc(-n2nnc(C(N)=O)c2O)cc1 | > 100 µM (inactive) | > 100 µM (inactive) | > 100 µM | – | > 100 µM (inactive) | > 100 µM (inactive) | – | > 100 µM (inactive) | > 100 µM (inactive) | > 100 µM (inactive) | > 100 µM (inactive) | > 100 µM (inactive) | > 100 µM (inactive) | > 100 µM (inactive) | > 100 µM (inactive) | > 100 µM (inactive) | > 100 µM (inactive) | > 100 µM (inactive) | > 100 µM (inactive) | –
Clc1ccc(OCC2NC3C=CC32)cn1 (stereo not drawn) | > 100 µM (inactive) | 50.1 µM (inactive) | > 100 µM | > 100 µM (inactive) | > 100 µM (inactive) | > 100 µM (inactive) | > 100 µM (inactive) | > 100 µM (inactive) | > 100 µM (inactive) | 56 µM (inactive) | > 100 µM (inactive) | > 100 µM (inactive) | > 100 µM (inactive) | > 100 µM (inactive) | > 100 µM (inactive) | > 100 µM (inactive) | 44.7 µM (inactive) | > 100 µM (inactive) | > 100 µM (inactive) | –
CC(=O)C1C(=O)C(=O)N(c2ccc([N+](=O)[O-])cc2[N+](=O)[O-])C1=O (stereo not drawn) | > 100 µM (inactive) | > 100 µM (inactive) | > 100 µM | > 100 µM (inactive) | > 100 µM (inactive) | > 100 µM (inactive) | > 100 µM (inactive) | > 100 µM (inactive) | – | > 100 µM (inactive) | – | > 100 µM (inactive) | > 100 µM (inactive) | > 100 µM (inactive) | > 100 µM (inactive) | 80.4 µM (inactive) | 59.3 µM (inactive) | > 100 µM (inactive) | 1.96 µM (inactive) | –
O=C(O)Cn1cnc2c(O)nc(Nc3ccccc3)nc21 | > 100 µM (inactive) | > 100 µM (inactive) | > 100 µM | > 100 µM (inactive) | > 100 µM (inactive) | > 100 µM (inactive) | > 100 µM (inactive) | > 100 µM (inactive) | > 100 µM (inactive) | > 100 µM (inactive) | > 100 µM (inactive) | > 100 µM (inactive) | > 100 µM (inactive) | > 100 µM (inactive) | > 100 µM (inactive) | > 100 µM (inactive) | – | > 100 µM (inactive) | – | > 100 µM (inactive)
CN1CCN(C(=S)N(C(=O)c2ccc(Cl)cc2)C2CCCCC2)CC1 | > 100 µM (inactive) | > 100 µM (inactive) | > 100 µM | > 100 µM (inactive) | > 100 µM (inactive) | 27.4 µM (inactive) | – | > 100 µM (inactive) | > 100 µM (inactive) | 63.1 µM (inactive) | > 100 µM (inactive) | > 100 µM (inactive) | 20 µM (inactive) | > 100 µM (inactive) | > 100 µM (inactive) | > 100 µM (inactive) | > 100 µM (inactive) | > 100 µM (inactive) | > 100 µM (inactive) | –
NC(CSC(=O)c1ccccc1)C(=O)O (stereo not drawn) | > 100 µM (inactive) | > 100 µM (inactive) | > 100 µM | > 100 µM (inactive) | > 100 µM (inactive) | > 100 µM (inactive) | > 100 µM (inactive) | > 100 µM (inactive) | > 100 µM (inactive) | > 100 µM (inactive) | – | > 100 µM (inactive) | > 100 µM (inactive) | > 100 µM (inactive) | > 100 µM (inactive) | > 100 µM (inactive) | > 100 µM (inactive) | > 100 µM (inactive) | > 100 µM (inactive) | > 100 µM (inactive)
COc1cc([N+](=O)[O-])c(S(=O)(=O)O)cc1-n1nc(C(=O)Nc2ccccc2)n[n+]1-c1cc(S(=O)(=O)[O-])c([N+](=O)[O-])cc1OC | > 100 µM (inactive) | 56 µM (inactive) | 45.4 µM | > 100 µM (inactive) | > 100 µM (inactive) | > 100 µM (inactive) | – | > 100 µM (inactive) | > 100 µM (inactive) | > 100 µM (inactive) | – | > 100 µM (inactive) | > 100 µM (inactive) | > 100 µM (inactive) | > 100 µM (inactive) | > 100 µM (inactive) | > 100 µM (inactive) | > 100 µM (inactive) | – | –
O=[N+]([O-])c1ccc(O)c(/C=N/CC2CCCN3CCCCC23)c1 (stereo not drawn) | 24.2 µM (inactive) | 35.6 µM (inactive) | 41.1 µM | – | 43.9 µM (inactive) | 16.9 µM (inactive) | 25.6 µM (inactive) | – | 31 µM (inactive) | – | – | 19.3 µM (inactive) | 23.7 µM (inactive) | 31 µM (inactive) | – | > 100 µM (inactive) | 34.8 µM (inactive) | 45.8 µM (inactive) | 23 µM (inactive) | –
O=C(CSCC(=O)N/N=C\c1cccc(Br)c1)N/N=C\c1cccc(Br)c1 | 34 µM (inactive) | 23.1 µM (inactive) | 21.2 µM | 22.9 µM (inactive) | 17.1 µM (inactive) | 18.2 µM (inactive) | 23.6 µM (inactive) | 18.8 µM (inactive) | 0.182 µM (active) | 21.3 µM (inactive) | 18.1 µM (inactive) | 19.1 µM (inactive) | 18.1 µM (inactive) | 13.4 µM (inactive) | 16.2 µM (inactive) | 11.6 µM (inactive) | 15.5 µM (inactive) | 25.2 µM (inactive) | 20.3 µM (inactive) | –
CC(=O)O[C@H]1C[C@H](O[C@H]2[C@@H](O)C[C@H](O[C@H]3[C@@H](O)C[C@H](O[C@H]4CC[C@@]5(C)[C@H](CC[C@@H]6[C@@H]5CC[C@]5(O)[C@@H](C7=CC(=O)OC7)CC[C@]65O)C4)O[C@@H]3C)O[C@@H]2C)O[C@H](C)[C@H]1O[C@@H]1O[C@H](CO)[C@@H](O)[C@H](O)[C@H]1O | 0.711 µM (active) | 0.286 µM (active) | 0.293 µM | 0.498 µM (active) | 0.356 µM (active) | 0.348 µM (active) | 0.185 µM (active) | 1.5 µM (inactive) | 0.403 µM (active) | 0.0262 µM (active) | 0.553 µM (active) | 0.223 µM (active) | 0.908 µM (active) | 0.349 µM (active) | 0.258 µM (active) | 0.428 µM (active) | 0.391 µM (active) | 0.106 µM (active) | – | 0.383 µM (active)
CCN(CC)c1ccc2cc(-c3csc(-c4ccc(N(C)C)cc4)n3)c(=O)oc2c1 | > 100 µM (inactive) | > 100 µM (inactive) | > 100 µM | > 100 µM (inactive) | > 100 µM (inactive) | > 100 µM (inactive) | > 100 µM (inactive) | > 100 µM (inactive) | > 100 µM (inactive) | > 100 µM (inactive) | > 100 µM (inactive) | > 100 µM (inactive) | 23.1 µM (inactive) | – | > 100 µM (inactive) | > 100 µM (inactive) | > 100 µM (inactive) | > 100 µM (inactive) | > 100 µM (inactive) | –
COC1CC(C)C(OC)c2cc(O)cc(c2O)NC(=O)/C(C)=C/C=C\C(C)C(OC(N)=O)/C(C)=C\C(C)C1OC (stereo not drawn) | 0.0516 µM (active) | 0.139 µM (active) | 5.6 µM | 1.69 µM (inactive) | 0.221 µM (active) | – | 0.417 µM (active) | 0.336 µM (active) | 0.225 µM (active) | 0.083 µM (active) | 0.266 µM (active) | 0.268 µM (active) | 0.776 µM (active) | – | 0.36 µM (active) | 6.97 µM (inactive) | 7.11 µM (inactive) | 0.203 µM (active) | 0.316 µM (active) | 3.49 µM (inactive)
COc1ccc(-n2cnc3c(NC(Cc4ccccc4)C(=O)O)ncnc32)cc1 (stereo not drawn) | > 100 µM (inactive) | > 100 µM (inactive) | > 100 µM | > 100 µM (inactive) | > 100 µM (inactive) | > 100 µM (inactive) | – | > 100 µM (inactive) | – | – | 92.7 µM (inactive) | > 100 µM (inactive) | > 100 µM (inactive) | > 100 µM (inactive) | > 100 µM (inactive) | > 100 µM (inactive) | > 100 µM (inactive) | > 100 µM (inactive) | – | > 100 µM (inactive)
O=S(=O)(O)c1cc(S(=O)(=O)O)c2c(/N=N/c3ccc(S(=O)(=O)O)c4ccccc34)c(O)ccc2c1 | > 100 µM (inactive) | > 100 µM (inactive) | > 100 µM | > 100 µM (inactive) | > 100 µM (inactive) | > 100 µM (inactive) | – | > 100 µM (inactive) | 21.9 µM (inactive) | > 100 µM (inactive) | > 100 µM (inactive) | > 100 µM (inactive) | > 100 µM (inactive) | > 100 µM (inactive) | > 100 µM (inactive) | > 100 µM (inactive) | > 100 µM (inactive) | – | > 100 µM (inactive) | –
